In ChEMBL document CHEMBL3991601, “The target landscape of clinical kinase drugs” (Science, 2017) one finds Kd data, which are given here for four molecules.

The source made the active and inactive calls. Cut-off read from the data, not from the text of the source, for most assays here: actives have a measured Kd and inactives only a lower limit.

The target of assay [1] is T1, Uncharacterized protein FLJ45252 (Homo sapiens, UniProt Q6ZSR9).
T1 sequence (Q6ZSR9 whole entry): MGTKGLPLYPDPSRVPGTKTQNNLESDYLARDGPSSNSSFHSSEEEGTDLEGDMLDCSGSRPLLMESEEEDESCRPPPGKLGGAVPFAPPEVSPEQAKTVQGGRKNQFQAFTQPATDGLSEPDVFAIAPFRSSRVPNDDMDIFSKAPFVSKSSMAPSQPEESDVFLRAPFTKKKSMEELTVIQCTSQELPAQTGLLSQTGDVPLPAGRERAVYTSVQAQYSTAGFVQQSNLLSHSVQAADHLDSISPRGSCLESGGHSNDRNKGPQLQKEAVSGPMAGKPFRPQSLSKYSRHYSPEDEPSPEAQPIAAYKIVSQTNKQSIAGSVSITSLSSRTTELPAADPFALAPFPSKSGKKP
To be noted: read-out: Kd apparent; k-562, colo 205, sk-n-be(2) and mv-4-11.

Assay [2] concerns the target Serine/threonine-protein kinase SIK2 (Homo sapiens, UniProt Q9H0K1).
Assay [3] concerns the target Ribosomal protein S6 kinase alpha-3 (Homo sapiens, UniProt P51812).
Assay [4] has as its target Serine/threonine-protein kinase MRCK alpha (Homo sapiens, UniProt Q5VT25).
Assay [5] concerns the target T2, MAP/microtubule affinity-regulating kinase 4 (Homo sapiens, UniProt Q96L34).
T2 sequence (Q96L34 whole entry): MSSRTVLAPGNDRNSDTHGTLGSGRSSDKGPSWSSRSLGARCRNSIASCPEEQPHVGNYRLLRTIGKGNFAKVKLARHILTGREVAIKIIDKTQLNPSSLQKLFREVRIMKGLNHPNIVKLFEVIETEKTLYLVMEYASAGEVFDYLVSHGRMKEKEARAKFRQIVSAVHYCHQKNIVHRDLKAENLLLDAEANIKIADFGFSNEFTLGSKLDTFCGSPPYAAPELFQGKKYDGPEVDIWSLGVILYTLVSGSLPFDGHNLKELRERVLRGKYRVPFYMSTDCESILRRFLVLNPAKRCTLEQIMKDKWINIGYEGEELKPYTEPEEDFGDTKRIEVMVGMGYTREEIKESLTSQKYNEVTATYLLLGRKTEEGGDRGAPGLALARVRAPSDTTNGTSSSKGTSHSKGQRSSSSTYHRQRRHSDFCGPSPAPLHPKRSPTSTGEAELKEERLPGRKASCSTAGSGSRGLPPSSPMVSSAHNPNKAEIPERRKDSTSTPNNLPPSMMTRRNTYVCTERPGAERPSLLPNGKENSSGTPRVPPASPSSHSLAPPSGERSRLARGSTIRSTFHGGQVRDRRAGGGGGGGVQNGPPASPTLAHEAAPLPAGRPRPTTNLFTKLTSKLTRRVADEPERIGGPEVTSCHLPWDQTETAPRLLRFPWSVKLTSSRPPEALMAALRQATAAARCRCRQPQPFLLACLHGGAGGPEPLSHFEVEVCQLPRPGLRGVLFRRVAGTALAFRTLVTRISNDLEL

The target in assay [6] is Serine/threonine-protein kinase 10 (Homo sapiens, UniProt O94804).
Sequence of Serine/threonine-protein kinase 10 (O94804 whole entry): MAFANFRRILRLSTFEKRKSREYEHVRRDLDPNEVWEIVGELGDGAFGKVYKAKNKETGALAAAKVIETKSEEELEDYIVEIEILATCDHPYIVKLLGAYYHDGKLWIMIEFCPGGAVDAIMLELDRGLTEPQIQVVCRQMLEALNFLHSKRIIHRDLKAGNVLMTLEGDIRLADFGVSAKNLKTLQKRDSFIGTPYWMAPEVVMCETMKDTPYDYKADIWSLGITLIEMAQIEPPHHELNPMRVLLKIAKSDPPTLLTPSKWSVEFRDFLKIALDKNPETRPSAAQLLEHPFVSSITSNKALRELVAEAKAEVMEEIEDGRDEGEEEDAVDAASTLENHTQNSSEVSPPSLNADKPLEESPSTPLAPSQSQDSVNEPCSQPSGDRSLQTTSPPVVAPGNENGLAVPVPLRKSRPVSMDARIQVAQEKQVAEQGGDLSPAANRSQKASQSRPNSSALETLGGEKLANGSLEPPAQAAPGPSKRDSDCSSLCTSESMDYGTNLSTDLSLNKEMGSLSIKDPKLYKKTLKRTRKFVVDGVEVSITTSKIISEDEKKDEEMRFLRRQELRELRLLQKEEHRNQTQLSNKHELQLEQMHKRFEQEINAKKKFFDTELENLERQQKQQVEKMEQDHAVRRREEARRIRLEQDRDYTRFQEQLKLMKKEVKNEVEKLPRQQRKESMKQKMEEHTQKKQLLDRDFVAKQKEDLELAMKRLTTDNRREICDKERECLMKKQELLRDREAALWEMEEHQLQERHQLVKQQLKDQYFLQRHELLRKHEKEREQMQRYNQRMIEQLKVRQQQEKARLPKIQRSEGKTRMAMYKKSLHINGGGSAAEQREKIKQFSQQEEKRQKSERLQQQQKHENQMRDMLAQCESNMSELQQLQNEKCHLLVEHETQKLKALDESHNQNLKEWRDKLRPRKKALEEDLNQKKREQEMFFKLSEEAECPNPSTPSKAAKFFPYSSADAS
The target of assay [7] is T3, Mitogen-activated protein kinase kinase kinase kinase 2 (Homo sapiens, UniProt Q12851).
T3 sequence (Q12851 whole entry): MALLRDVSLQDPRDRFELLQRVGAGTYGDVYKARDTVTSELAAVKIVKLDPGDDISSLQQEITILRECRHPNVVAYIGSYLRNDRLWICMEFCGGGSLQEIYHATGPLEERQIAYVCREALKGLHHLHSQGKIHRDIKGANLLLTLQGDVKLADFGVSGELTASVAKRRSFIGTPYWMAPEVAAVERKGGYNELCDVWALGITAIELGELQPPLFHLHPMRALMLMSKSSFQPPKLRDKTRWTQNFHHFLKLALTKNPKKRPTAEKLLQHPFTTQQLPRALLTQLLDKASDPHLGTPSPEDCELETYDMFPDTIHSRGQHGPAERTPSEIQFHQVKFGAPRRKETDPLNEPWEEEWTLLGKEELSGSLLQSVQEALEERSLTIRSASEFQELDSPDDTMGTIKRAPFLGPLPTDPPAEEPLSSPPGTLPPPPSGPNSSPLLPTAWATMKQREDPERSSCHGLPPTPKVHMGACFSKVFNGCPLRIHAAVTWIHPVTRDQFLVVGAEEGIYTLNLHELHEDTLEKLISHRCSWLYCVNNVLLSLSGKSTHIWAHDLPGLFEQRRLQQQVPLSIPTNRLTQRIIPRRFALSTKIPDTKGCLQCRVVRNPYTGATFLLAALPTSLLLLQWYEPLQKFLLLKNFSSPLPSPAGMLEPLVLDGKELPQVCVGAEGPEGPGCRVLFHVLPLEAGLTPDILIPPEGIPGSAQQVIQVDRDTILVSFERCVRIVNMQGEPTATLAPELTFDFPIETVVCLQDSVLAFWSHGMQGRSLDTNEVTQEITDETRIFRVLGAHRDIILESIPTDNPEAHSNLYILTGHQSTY
Note: in the data inactive means no Kd found up to 30 µM.

Sequence of Serine/threonine-protein kinase SIK2 (Q9H0K1 whole entry): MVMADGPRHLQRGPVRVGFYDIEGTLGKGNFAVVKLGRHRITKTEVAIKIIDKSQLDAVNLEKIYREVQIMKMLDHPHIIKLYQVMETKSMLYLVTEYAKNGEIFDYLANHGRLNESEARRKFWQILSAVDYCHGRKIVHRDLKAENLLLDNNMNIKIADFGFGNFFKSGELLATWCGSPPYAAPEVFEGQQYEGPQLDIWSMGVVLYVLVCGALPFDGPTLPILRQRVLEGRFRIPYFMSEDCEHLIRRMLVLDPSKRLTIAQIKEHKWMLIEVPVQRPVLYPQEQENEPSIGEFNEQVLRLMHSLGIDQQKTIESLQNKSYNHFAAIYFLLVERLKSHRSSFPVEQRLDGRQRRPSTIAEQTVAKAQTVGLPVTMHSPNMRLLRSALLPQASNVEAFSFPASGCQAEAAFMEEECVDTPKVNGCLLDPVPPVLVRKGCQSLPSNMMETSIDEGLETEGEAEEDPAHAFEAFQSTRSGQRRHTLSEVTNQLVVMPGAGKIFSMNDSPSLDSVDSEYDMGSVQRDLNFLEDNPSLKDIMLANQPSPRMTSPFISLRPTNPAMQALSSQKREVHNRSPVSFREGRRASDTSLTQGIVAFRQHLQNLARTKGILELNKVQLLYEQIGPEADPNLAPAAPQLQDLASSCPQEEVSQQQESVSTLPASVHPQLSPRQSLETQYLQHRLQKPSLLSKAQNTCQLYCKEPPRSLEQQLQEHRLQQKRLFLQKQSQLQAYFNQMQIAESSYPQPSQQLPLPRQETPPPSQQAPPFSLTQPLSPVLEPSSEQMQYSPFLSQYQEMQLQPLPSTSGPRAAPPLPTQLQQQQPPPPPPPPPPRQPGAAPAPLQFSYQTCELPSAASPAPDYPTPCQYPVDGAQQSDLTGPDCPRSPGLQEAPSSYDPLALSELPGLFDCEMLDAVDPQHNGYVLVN
Sequence of Serine/threonine-protein kinase MRCK alpha (Q5VT25 whole entry): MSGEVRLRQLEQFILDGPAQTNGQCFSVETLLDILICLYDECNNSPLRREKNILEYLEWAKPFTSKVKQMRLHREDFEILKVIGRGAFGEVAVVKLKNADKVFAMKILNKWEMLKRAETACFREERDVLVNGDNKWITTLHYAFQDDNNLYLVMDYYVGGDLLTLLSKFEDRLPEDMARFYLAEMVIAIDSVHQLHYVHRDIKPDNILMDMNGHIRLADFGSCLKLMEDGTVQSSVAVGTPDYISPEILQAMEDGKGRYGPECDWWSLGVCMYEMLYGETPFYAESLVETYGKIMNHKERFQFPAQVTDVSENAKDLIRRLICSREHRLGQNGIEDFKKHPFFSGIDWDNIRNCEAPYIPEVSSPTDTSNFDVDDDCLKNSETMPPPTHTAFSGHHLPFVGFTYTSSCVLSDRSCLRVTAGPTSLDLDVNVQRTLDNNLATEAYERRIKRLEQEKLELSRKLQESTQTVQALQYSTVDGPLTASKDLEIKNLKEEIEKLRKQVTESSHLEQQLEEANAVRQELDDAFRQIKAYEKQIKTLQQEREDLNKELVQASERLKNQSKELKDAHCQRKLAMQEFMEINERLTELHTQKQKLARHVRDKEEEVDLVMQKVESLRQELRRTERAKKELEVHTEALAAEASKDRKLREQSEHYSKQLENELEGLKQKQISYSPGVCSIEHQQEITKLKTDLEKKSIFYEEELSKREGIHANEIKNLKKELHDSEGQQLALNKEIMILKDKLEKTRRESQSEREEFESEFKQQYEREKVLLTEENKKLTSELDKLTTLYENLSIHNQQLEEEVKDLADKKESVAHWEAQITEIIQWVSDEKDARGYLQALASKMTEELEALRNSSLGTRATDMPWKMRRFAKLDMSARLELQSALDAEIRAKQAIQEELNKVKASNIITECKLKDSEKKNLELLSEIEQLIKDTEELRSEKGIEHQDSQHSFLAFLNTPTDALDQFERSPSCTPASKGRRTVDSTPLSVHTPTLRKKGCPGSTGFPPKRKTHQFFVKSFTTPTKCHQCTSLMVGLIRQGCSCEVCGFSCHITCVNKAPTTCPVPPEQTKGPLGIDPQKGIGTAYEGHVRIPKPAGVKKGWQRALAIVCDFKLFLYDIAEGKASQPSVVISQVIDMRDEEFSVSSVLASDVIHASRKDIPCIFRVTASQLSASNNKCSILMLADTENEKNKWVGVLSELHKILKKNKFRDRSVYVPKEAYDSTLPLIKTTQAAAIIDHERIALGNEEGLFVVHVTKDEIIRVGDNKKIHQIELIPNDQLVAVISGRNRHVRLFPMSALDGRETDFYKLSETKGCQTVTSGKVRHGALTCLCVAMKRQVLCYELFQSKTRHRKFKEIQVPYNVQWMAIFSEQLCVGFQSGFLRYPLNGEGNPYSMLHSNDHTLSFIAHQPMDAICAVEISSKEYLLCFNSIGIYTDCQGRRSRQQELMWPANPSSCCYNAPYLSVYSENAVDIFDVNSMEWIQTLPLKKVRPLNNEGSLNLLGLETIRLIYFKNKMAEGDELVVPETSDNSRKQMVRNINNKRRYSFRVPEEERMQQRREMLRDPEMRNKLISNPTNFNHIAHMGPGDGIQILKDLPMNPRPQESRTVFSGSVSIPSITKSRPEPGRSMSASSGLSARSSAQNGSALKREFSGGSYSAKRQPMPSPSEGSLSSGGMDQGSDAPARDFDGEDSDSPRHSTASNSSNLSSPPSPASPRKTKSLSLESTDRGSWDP
Sequence of Ribosomal protein S6 kinase alpha-3 (P51812 whole entry): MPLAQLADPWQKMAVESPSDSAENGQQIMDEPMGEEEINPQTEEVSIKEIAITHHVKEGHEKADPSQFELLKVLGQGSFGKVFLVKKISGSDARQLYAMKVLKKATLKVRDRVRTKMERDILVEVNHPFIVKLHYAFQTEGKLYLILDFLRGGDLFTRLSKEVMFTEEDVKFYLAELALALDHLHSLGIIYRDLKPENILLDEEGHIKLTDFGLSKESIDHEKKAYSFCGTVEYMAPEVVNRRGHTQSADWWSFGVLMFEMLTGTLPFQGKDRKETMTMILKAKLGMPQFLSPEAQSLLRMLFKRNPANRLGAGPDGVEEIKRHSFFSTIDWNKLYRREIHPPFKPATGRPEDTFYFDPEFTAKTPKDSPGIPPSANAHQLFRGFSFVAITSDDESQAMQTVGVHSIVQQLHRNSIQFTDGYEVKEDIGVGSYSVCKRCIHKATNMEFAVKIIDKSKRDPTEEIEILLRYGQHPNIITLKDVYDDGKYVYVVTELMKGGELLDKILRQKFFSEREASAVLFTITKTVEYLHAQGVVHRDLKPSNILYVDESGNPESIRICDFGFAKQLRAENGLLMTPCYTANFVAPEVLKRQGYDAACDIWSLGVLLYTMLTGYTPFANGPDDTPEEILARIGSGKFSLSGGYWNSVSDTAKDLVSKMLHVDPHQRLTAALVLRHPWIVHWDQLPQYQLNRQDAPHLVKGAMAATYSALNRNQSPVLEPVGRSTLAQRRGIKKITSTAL

In the case of `Cn1cc(-c2ccc3nnc(C(F)(F)c4ccc5ncccc5c4)n3n2)cn1` [JNJ-38877605], the Kd in assay [1], in assay [2], in assay [3], in assay [4], in assay [5] and in assay [6] was > 30 µM (inactive) in each case. For the same molecule, in assay [7], the Kd is > 30 µM (inactive).
In the case of `CN1CC[C@@H](c2c(O)cc(O)c3c(=O)cc(-c4ccccc4Cl)oc23)[C@@H]1CO`, the Kd in assay [1], in assay [2], in assay [3], in assay [4], in assay [5] and in assay [6] was > 30 µM (inactive) each time. In assay [7], the Kd was > 30 µM (inactive).
As for `O=C(c1ccc(F)c(F)c1Nc1ccc(I)cc1F)N1CC(O)([C@@H]2CCCCN2)C1` [COBIMETINIB], the Kd in assay [1], in assay [2], in assay [3], in assay [4], in assay [5] and in assay [6] was > 30 µM (inactive) throughout. In assay [7], the Kd is > 30 µM (inactive).
In the case of `Cc1cc(-c2cc(O)ccc2Cl)cc2nnc(Nc3ccc(OCCN4CCCC4)cc3)nc12`, the Kd in assay [1] was > 30 µM (inactive); in assay [2], 0.002 µM (active); in assay [3] it was > 30 µM (inactive); in assay [4], > 30 µM (inactive); in assay [5] it was > 30 µM (inactive); in assay [6], > 30 µM (inactive). The Kd in assay [7] is > 30 µM (inactive).
